From US9242970B2 (ACTELION PHARMACEUTICALS LTD., priority 2010, dated 2016)
Like-named read-outs stand apart in the source and are kept apart here.

Columns and labels:
human orexin-2 receptor = human orexin-2 receptor (Homo sapiens (Human), UniProt O43614); assay: In vitro assay: intracellular calcium measurements (FLIPR), antagonistic activity; assay type: cell-based; conditions: CHO cells, 3 nM orexin-A, marked values are geometric means of n = 2-6, read-out: IC50 OX2
human orexin-1 receptor = human orexin-1 receptor (Homo sapiens (Human), UniProt O43613); assay: as above; assay type: cell-based; conditions: CHO cells, 3 nM orexin-A, marked values are geometric means of n = 2-6, read-out: IC50 OX1
human orexin-1 receptor, sequence (O43613 whole entry): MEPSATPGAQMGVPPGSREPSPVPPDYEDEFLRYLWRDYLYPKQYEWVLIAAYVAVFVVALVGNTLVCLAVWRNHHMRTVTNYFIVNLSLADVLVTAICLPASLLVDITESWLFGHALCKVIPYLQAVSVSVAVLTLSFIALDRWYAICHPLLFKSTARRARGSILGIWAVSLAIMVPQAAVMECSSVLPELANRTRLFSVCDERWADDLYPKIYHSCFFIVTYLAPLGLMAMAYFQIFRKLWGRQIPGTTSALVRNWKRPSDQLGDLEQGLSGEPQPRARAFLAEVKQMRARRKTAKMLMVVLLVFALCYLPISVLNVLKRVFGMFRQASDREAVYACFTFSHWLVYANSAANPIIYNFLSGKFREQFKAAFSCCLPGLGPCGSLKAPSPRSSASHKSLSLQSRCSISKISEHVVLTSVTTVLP

[1] = compound incubation time of 10 min

human orexin-2 receptor, sequence (O43614 whole entry): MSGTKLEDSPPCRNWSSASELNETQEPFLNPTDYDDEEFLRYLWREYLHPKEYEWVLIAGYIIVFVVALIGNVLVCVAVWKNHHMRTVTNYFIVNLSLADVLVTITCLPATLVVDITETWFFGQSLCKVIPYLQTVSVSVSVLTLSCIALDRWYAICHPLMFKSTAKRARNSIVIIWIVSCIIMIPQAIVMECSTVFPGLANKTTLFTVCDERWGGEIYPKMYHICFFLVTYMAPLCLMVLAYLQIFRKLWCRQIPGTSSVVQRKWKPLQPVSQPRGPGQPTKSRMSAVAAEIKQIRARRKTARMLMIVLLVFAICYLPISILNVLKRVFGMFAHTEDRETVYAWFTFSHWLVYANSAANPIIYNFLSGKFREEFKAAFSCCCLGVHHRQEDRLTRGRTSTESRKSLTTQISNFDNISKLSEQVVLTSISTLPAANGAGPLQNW

Row | SMILES | IC50 (human orexin-2 receptor; [1]) | IC50 (human orexin-1 receptor; [1]) | IC50 (human orexin-2 receptor; compound incubation 120 min) | IC50 (human orexin-1 receptor; compound incubation 120 min)
1 | COc1cccc(OC)c1C1CCCC(=O)N1Cc1ccc(OC(F)F)cn1 (stereo not drawn) [Example 187, 1-((5-(difluoromethoxy)pyridin-2-yl)methyl)-6-(2,6-dimethoxyphenyl)piperidin-2-one] | 70 nM | 235 nM | – | –
2 | CCC(c1ccc(OC(F)(F)F)cc1)N1C(=O)CCCC1c1c(OC)cccc1OC (stereo not drawn) [Example 186, 6-(2,6-dimethoxyphenyl)-1-(1-(4-(trifluoromethoxy)phenyl)propyl)piperidin-2-one] | 5650 nM | 2770 nM | – | –
3 | COc1cccc(OC)c1C1CCCC(=O)N1Cc1ccc2c(c1)OCO2 (stereo not drawn) [Example 166, 1-(benzo[d][1,3]dioxol-5-ylmethyl)-6-(2,6-dimethoxyphenyl)piperidin-2-one] | 549 nM | 1720 nM | – | –
4 | COc1cccc(OC)c1C1CCCC(=O)N1Cc1cccc(-c2noc(C)n2)c1 (stereo not drawn) [Example 33, 6-(2,6-dimethoxyphenyl)-1-(3-(5-methyl-1,2,4-oxadiazol-3-yl)benzyl)piperidin-2-one] | – | – | 50 nM | 39 nM
5 | COc1cccc(F)c1C1CC(C)C(=O)N1Cc1cccc(-c2nc(Cl)cs2)c1 (stereo not drawn) [Example 365, 1-(3-(4-chlorothiazol-2-yl)benzyl)-5-(2-fluoro-6-methoxyphenyl)-3-methylpyrrolidin-2-one] | – | – | 9 nM | 114 nM
6 | COc1cccc(OC)c1C1CCCC(=O)N1Cc1ccc(OC(C)C)cc1 (stereo not drawn) [Example 206, 6-(2,6-dimethoxyphenyl)-1-(4-isopropoxybenzyl)piperidin-2-one] | 16 nM | 383 nM | – | –
7 | COc1cccc(OC)c1C1CC(C)C(=O)N1Cc1cnn(-c2ccccc2)c1 (stereo not drawn) [Example 144, 5-(2,6-dimethoxyphenyl)-3-methyl-1-((1-phenyl-1H-pyrazol-4-yl)methyl)pyrrolidin-2-one] | – | – | 318 nM | 223 nM
8 | O=C1[C@H](O)C[C@@H](c2cccc3c2OCCO3)N1Cc1ccc(OC(F)(F)F)cc1 (racemic) [Example 295, rac-(3R*,5S*)-5-(2,3-dihydrobenzo[b][1,4]dioxin-5-yl)-3-hydroxy-1-(4-(trifluoromethoxy)benzyl)pyrrolidin-2-one] | – | – | 5010 nM | 3970 nM
9 | COc1cccc(OC)c1C1CC(C)C(=O)N1Cc1ccc(F)c(-c2ccccn2)c1 (stereo not drawn) [Example 153, 5-(2,6-dimethoxyphenyl)-1-(4-fluoro-3-(pyridin-2-yl)benzyl)-3-methylpyrrolidin-2-one] | – | – | 122 nM | 8 nM
10 | COc1cc(CN2C(=O)C(C)CC2c2c(OC)cccc2OC)ccc1OC(F)F (stereo not drawn) [Example 425, 1-(4-(difluoromethoxy)-3-methoxybenzyl)-5-(2,6-dimethoxyphenyl)-3-methylpyrrolidin-2-one] | – | – | 235 nM | 311 nM
11 | COc1cccc(OC)c1C1CCCC(=O)N1Cc1cccc2ccccc12 (stereo not drawn) [Example 15, 6-(2,6-dimethoxyphenyl)-1-(naphthalen-1-ylmethyl)piperidin-2-one] | – | – | 23 nM | 210 nM
12 | COc1cc(C)cc(OC)c1C1CCCC(=O)N1Cc1ccc(OC(F)(F)F)cc1 (stereo not drawn) [Example 233, 6-(2,6-dimethoxy-4-methylphenyl)-1-(4-(trifluoromethoxy)benzyl)piperidin-2-one] | 107 nM | 400 nM | – | –
13 | CCOc1cccc(F)c1[C@@H]1C[C@@H](O)C(=O)N1Cc1ccc(OC(F)(F)F)c(F)c1 (racemic) [Example 428, rac-(3R*,5S*)-5-(2-ethoxy-6-fluorophenyl)-1-(3-fluoro-4-(trifluoromethoxy)benzyl)-3-hydroxypyrrolidin-2-one] | – | – | 53 nM | 1710 nM
14 | COc1cccc(OC)c1C1CCC(=O)N1Cc1cccc(N2CCCCC2)n1 (stereo not drawn) [Example 130, 5-(2,6-dimethoxyphenyl)-1-((6-(piperidin-1-yl)pyridin-2-yl)methyl)pyrrolidin-2-one] | – | – | 690 nM | 636 nM
15 | COc1cccc(OC)c1C1CCCC(=O)N1Cc1ccc(S(C)(=O)=O)cc1 (stereo not drawn) [Example 248, 6-(2,6-dimethoxyphenyl)-1-(4-(methylsulfonyl)benzyl)piperidin-2-one] | 1710 nM | 7250 nM | – | –
16 | COc1cccc(F)c1C1CC(C)C(=O)N1Cc1csc(-c2ccc(C)cc2)n1 (stereo not drawn) [Example 363, 5-(2-fluoro-6-methoxyphenyl)-3-methyl-1-((2-(p-tolyl)thiazol-4-yl)methyl)pyrrolidin-2-one] | – | – | 49 nM | 424 nM
17 | COc1ccc2c(c1C1CCCC(=O)N1Cc1cccc(-c3csc(C)n3)c1)OCO2 (stereo not drawn) [Example 448, 6-(5-methoxybenzo[d][1,3]dioxol-4-yl)-1-(3-(2-methylthiazol-4-yl)benzyl)piperidin-2-one] | – | – | 11 nM | 17 nM
18 | COc1cccc(OC)c1C1CCC(=O)N1Cc1ccc(-c2ccccc2)cc1 (stereo not drawn) [Example 114, 1-([1,1′-biphenyl]-4-ylmethyl)-5-(2,6-dimethoxyphenyl)pyrrolidin-2-one] | – | – | 184 nM | 149 nM

Row | SMILES | IC50 (human orexin-2 receptor; [1]) | IC50 (human orexin-1 receptor; [1]) | IC50 (human orexin-2 receptor; compound incubation 120 min) | IC50 (human orexin-1 receptor; compound incubation 120 min)
19 | COc1cccc(OC)c1C1CC(C)C(=O)N1Cc1ccc2ccccc2c1 (stereo not drawn) [Example 131, 5-(2,6-dimethoxyphenyl)-3-methyl-1-(naphthalen-2-ylmethyl)pyrrolidin-2-one] | – | – | 455 nM | 27 nM
20 | COc1cccc(OC)c1C1CC(F)(F)C(=O)N1Cc1ccc2oc3ccccc3c2c1 (stereo not drawn) [Example 353, 1-(dibenzo[b,d]furan-2-ylmethyl)-5-(2,6-dimethoxyphenyl)-3,3-difluoropyrrolidin-2-one] | – | – | 19 nM | 4 nM
21 | COc1cccc(OC)c1C1CCCC(=O)N1Cc1ccc(-n2cccn2)cc1 (stereo not drawn) [Example 168, 1-(4-(1H-pyrazol-1-yl)benzyl)-6-(2,6-dimethoxyphenyl)piperidin-2-one] | 453 nM | 1820 nM | – | –
22 | COc1cccc(OC)c1C1CC(C)C(=O)N1Cc1ccc2[nH]ccc2c1 (stereo not drawn) [Example 392, 1-((1H-indol-5-yl)methyl)-5-(2,6-dimethoxyphenyl)-3-methylpyrrolidin-2-one] | – | – | 1780 nM | 810 nM
23 | COc1cc(F)c(C2CCCC(=O)N2Cc2ccc(OC(F)(F)F)cc2)c(F)c1 (stereo not drawn) [Example 225, 6-(2,6-difluoro-4-methoxyphenyl)-1-(4-(trifluoromethoxy)benzyl)piperidin-2-one] | 5480 nM | 4210 nM | – | –
24 | COc1ccc(OC(F)(F)F)cc1CN1C(=O)C(C)CC1c1c(OC)cccc1OC (stereo not drawn) [Example 403, 5-(2,6-dimethoxyphenyl)-1-(2-methoxy-5-(trifluoromethoxy)benzyl)-3-methylpyrrolidin-2-one] | – | – | 449 nM | 532 nM
25 | COc1cccc(C)c1C1CCCC(=O)N1Cc1ccc(OC(F)(F)F)cc1 (stereo not drawn) [Example 222, 6-(2-methoxy-6-methylphenyl)-1-(4-(trifluoromethoxy)benzyl)piperidin-2-one] | 268 nM | 4380 nM | – | –
26 | COc1cc(Cl)cc(OC)c1C1CCCC(=O)N1Cc1ccc(OC(F)(F)F)cc1 (stereo not drawn) [Example 167, 6-(4-chloro-2,6-dimethoxyphenyl)-1-(4-(trifluoromethoxy)benzyl)piperidin-2-one] | 28 nM | 231 nM | – | –
27 | COc1ccnc(OC)c1C1CC(C)C(=O)N1Cc1cccc(-c2nc(Cl)cs2)c1 (stereo not drawn) [Example 355, 1-(3-(4-chlorothiazol-2-yl)benzyl)-5-(2,4-dimethoxypyridin-3-yl)-3-methylpyrrolidin-2-one] | – | – | 103 nM | 34 nM
28 | COc1ccc2ccccc2c1[C@@H]1C[C@@H](O)C(=O)N1Cc1ccc(OC(F)(F)F)cc1 (racemic) [Example 312, rac-(3R*,5S*)-3-hydroxy-5-(2-methoxynaphthalen-1-yl)-1-(4-(trifluoromethoxy)benzyl)pyrrolidin-2-one] | – | – | 826 nM | 2200 nM
29 | COc1cncc(OC)c1C1CCCCC(=O)N1Cc1cccc(-c2csc(C)n2)c1 (stereo not drawn) [Example 274, 7-(3,5-dimethoxypyridin-4-yl)-1-(3-(2-methylthiazol-4-yl)benzyl)azepan-2-one] | – | – | 64 nM | 23 nM
30 | COc1cccc(OC)c1C1CC(C)C(=O)N1Cc1cccc(OC(F)F)c1 (stereo not drawn) [Example 198, 1-(3-(difluoromethoxy)benzyl)-5-(2,6-dimethoxyphenyl)-3-methylpyrrolidin-2-one] | 96 nM | 117 nM | – | –
31 | COc1cccc(OC)c1C1CCCCC(=O)N1Cc1cccc(-c2cncs2)c1 (stereo not drawn) [Example 99, 7-(2,6-dimethoxyphenyl)-1-(3-(thiazol-5-yl)benzyl)azepan-2-one] | – | – | 34 nM | 7 nM
32 | CCOc1cc(F)ccc1[C@@H]1C[C@@H](O)C(=O)N1Cc1ccc(OC(F)(F)F)cc1 (racemic) [Example 335, rac-(3R*,5S*)-5-(2-ethoxy-4-fluorophenyl)-3-hydroxy-1-(4-(trifluoromethoxy)benzyl)pyrrolidin-2-one] | – | – | 1360 nM | 5350 nM
33 | CCOc1cccc(F)c1C1CC(C)C(=O)N1Cc1cccc(OC(F)(F)F)c1 (stereo not drawn) [Example 371, 5-(2-ethoxy-6-fluorophenyl)-3-methyl-1-(3-(trifluoromethoxy)benzyl)pyrrolidin-2-one] | – | – | 19 nM | 386 nM
34 | COc1ncnc(OC)c1C1CCCC(=O)N1Cc1cccc(-c2ccccc2)c1 (stereo not drawn) [Example 270, 1-([1,1′-biphenyl]-3-ylmethyl)-6-(4,6-dimethoxypyrimidin-5-yl)piperidin-2-one] | – | – | 412 nM | 568 nM
35 | COc1cccc(OC)c1C1CCC(=O)N1Cc1ccc2ccccc2n1 (stereo not drawn) [Example 110, 5-(2,6-dimethoxyphenyl)-1-(quinolin-2-ylmethyl)pyrrolidin-2-one] | 136 nM | 409 nM | – | –
36 | COc1ccc(Cl)c(OC)c1[C@@H]1C[C@H](Cl)C(=O)N1Cc1ccc(OC(F)(F)F)cc1 (racemic) [Example 318, rac-(3S*,5S*)-3-chloro-5-(3-chloro-2,6-dimethoxyphenyl)-1-(4-(trifluoromethoxy)benzyl)pyrrolidin-2-one] | – | – | 444 nM | 167 nM
